Source: ChEMBL document CHEMBL1201862, “PubChem BioAssay data set” (2004)
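Cells were grown in 96-well plates and exposed to each compound for 48 hours at five concentrations; endpoints were interpolated linearly between bracketing concentrations, or set to the highest concentration if not reached. GI50 is the concentration that inhibits growth by half.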 Activity calls are given as the source filed them. Rule as the data show it: active = GI50 up to about 1.1 µM and inactive = higher.

Tests used:
Assay in all cases: NCI anticancer screen, dose series, 48 h
BT-549 = tested on: BT-549
CAKI-1 = tested on: CAKI-1
HCC 2998 = tested on: HCC 2998
HOP-62 = tested on: HOP-62
HOP-92 = tested on: HOP-92
HT-29 = tested on: HT-29
LOX IMVI = tested on: LOX IMVI
Malme-3M = tested on: Malme-3M
NCI-H460 = tested on: NCI-H460
NCI-H522 = tested on: NCI-H522
OVCAR-4 = tested on: OVCAR-4
PC-3 = tested on: PC-3
RPMI-8226 = tested on: RPMI-8226
SF-268 = tested on: SF-268
SK-MEL-2 = tested on: SK-MEL-2
SK-OV-3 = tested on: SK-OV-3
SNB-75 = tested on: SNB-75
TK-10 = tested on: TK-10
UACC-257 = tested on: UACC-257
UACC-62 = tested on: UACC-62

Measured: GI50

Nc1cc(O)c2c(c1O)C(=O)C=CC2=O
inactive: BT-549 16.7 µM | CAKI-1 18.6 µM | HCC 2998 9.31 µM | HOP-62 27.3 µM | HOP-92 14.8 µM | HT-29 4.55 µM | LOX IMVI 5.58 µM | Malme-3M 2.67 µM | NCI-H460 9.57 µM | NCI-H522 5.9 µM | OVCAR-4 10.8 µM | PC-3 19.5 µM | RPMI-8226 5.2 µM | SF-268 22.9 µM | SK-MEL-2 14 µM | SK-OV-3 47 µM | SNB-75 30.7 µM | TK-10 26.6 µM | UACC-257 14.5 µM | UACC-62 11.4 µM

CCNCCCCNCCCCNCCCCNCCCCNCC
inactive: BT-549 > 100 µM | CAKI-1 10.4 µM | HCC 2998 > 100 µM | HOP-62 26.4 µM | HOP-92 30.8 µM | HT-29 18.6 µM | LOX IMVI 32 µM | Malme-3M 6.49 µM | NCI-H460 32 µM | NCI-H522 > 100 µM | OVCAR-4 > 22.2 µM | PC-3 > 100 µM | RPMI-8226 53 µM | SF-268 48.8 µM | SK-MEL-2 48.1 µM | SK-OV-3 > 100 µM | SNB-75 16.7 µM | TK-10 29.7 µM | UACC-257 40.1 µM | UACC-62 14.4 µM

O=c1c(-c2nc3ccccc3c3ccccc3c2=O)nc2ccccc2c2ccccc12
inactive: BT-549 47.1 µM | CAKI-1 38.9 µM | HCC 2998 21.9 µM | HOP-62 34.8 µM | HOP-92 37.1 µM | HT-29 43.5 µM | LOX IMVI 32.1 µM | Malme-3M 76.6 µM | NCI-H460 41.3 µM | NCI-H522 37.1 µM | OVCAR-4 37.5 µM | PC-3 27.7 µM | RPMI-8226 26.2 µM | SF-268 41 µM | SK-MEL-2 27.4 µM | SK-OV-3 > 100 µM | SNB-75 32.1 µM | TK-10 48.4 µM | UACC-257 33.8 µM | UACC-62 30.2 µM

COc1cc(C2SCC(=O)N2c2ccc(-c3ccc(-n4c(-c5ccccc5)nc5ccccc5c4=O)cc3)cc2)ccc1O (stereo not given)
inactive: BT-549 > 100 µM | CAKI-1 > 100 µM | HCC 2998 82.2 µM | HOP-62 > 100 µM | HOP-92 30.9 µM | HT-29 39.2 µM | LOX IMVI 27.2 µM | Malme-3M > 100 µM | NCI-H460 > 100 µM | NCI-H522 35.1 µM | OVCAR-4 37.9 µM | PC-3 40.4 µM | RPMI-8226 > 100 µM | SF-268 32.7 µM | SK-MEL-2 > 100 µM | SK-OV-3 16 µM | SNB-75 15 µM | TK-10 > 100 µM | UACC-257 > 100 µM | UACC-62 21.8 µM
